Results taken from patent US20150057350A1, “FIBROSIS BIOMARKERS AND METHODS OF USING SAME” (ABBOTT LABORATORIES, priority 2013, published 2015).

Columns and labels:
Type in all cases: in vivo
[1] = system: Matrix Metalloproteinase-3 (MMP-3); assay: 10-day bed rest study in healthy elderly subjects: circulating MMP-3 (RBM Human DiscoveryMAP, serum)
Source text: (§1) The following inclusion criteria were verified at screening: male or female ≧60 to ≦79 years of age; body mass index (BMI) ≧20 but ≦35; ambulatory with a Short Performance Physical Battery (SPPB) score of ≧9 (fully functional with no mobility limitations); and compliance with prescribed activity level. Exclusion criteria ruled out subjects who had undergone recent major surgery, had active malignancy (excepting basal or squamous cell skin carcinoma or carcinoma in situ of the uterine cervix); history of Deep Vein Thrombosis (DVT) or other hypercoagulation disorders; refractory anemia; history of diabetes or fasting blood glucose value >126 mg/dL; presence of partial or full artificial limb; kidney disease or serum creatinine >1.4 mg/dL; evidence of cardiovascular disease assessed during resting or exercise EKG; untreated hypothyroidism; liver disease; chronic or acute GI disease; uncontrolled severe diarrhea, nausea or vomiting; were actively pursuing weight loss; were enrolled in other clinical trials; could not refrain from smoking over the bed rest study period; or could not discontinue anticoagulant therapy over bed rest period. Potential subjects were also excluded if they were taking any medications known to affect protein metabolism (e.g., progestational agents, steroids, growth hormone, dronabinol, marijuana, HMB, free amino acid supplements, dietary supplements to aid weight loss).
(§2) The 24 healthy subjects initially involved in the study were randomized into two groups. Subjects in the treatment group received two β-hydroxy-β-methylbutyrate (HMB) sachets containing 1.5 grams of Ca-HMB (TSI, Salt Lake City, Utah), 4 grams of maltodextrin, and 200 milligrams of calcium with additional sweetener and flavoring agents. Subjects in the control group received two control sachets that were identical to the HMB sachets with the exclusion Ca-HMB. This study was a double-blinded study. Neither the investigators nor the subjects were informed of the identity of any of the study products during the clinical portion of the study. Subjects were instructed to consume a sachet twice daily by mixing a sachet into a non-caloric, non-caffeinated, non-carbonated, non-milk-based beverage of their choice. Treatment with HMB or Control was initiated 5 days prior to bed rest and was continued until the end of the rehabilitation period.
(§3) For diet stabilization over the pre-bed rest and bed rest periods, subjects were fed a metabolically controlled diet providing the RDA for protein intake (0.8 g protein/kg body weight per day). Total calorie needs were estimated using the Harris-Benedict equation for resting energy expenditure according to the following equation: For women=[655+(9.56×body weight in kg)+(1.85×height in cm)−(4.68×age in years)]×AF, and, For men=[66+(13.7×body weight in kg)+(5×height in cm)−([…]]×AF, where AF=activity factor of 1.6 for the ambulatory period and 1.35 for the bed rest period. Given the total calorie and protein intakes, the remainder of the diet was manipulated to keep the non-protein calories at about 60% from carbohydrates and 40% from fat. Water was provided ad libitum.
(§4) After a diet stabilization of 5 days (ambulatory period), subjects remained in bed continuously for 10 days. While confined to bed rest, subjects were allowed to use the bedside commode for urination or were taken in a wheelchair for toileting. Subjects were given the option of taking a sponge bath or showering in a wheelchair. Prophylactic measures were taken to detect and prevent deep vein thrombosis including a blood d-dimer test followed by an ultrasound examination if d-dimer test was positive, passive range of motion exercise during bed rest, the use of TED hose and SCD over the bed rest period. Subjects were offered medication to help mitigate reflux problems associated with being supine. Subjects were constantly monitored by nursing staff and received a daily physical examination by the study physician. […]

[2] = system: development of fibrosis; assay: 10-day bed rest study: all 3 fibrosis markers taken together; conditions: prolonged period of physical inactivity, human subject
Source text: as §1, with “Potential subjects were also excluded if they were taking any medications known to affect protein metabolism (e.g., progestational agents, steroids, growth hormone, dronabinol, marijuana, HMB, free amino acid supplements, dietary supplements to aid weight loss).” left out
(§5) After a diet stabilization of 5 days (ambulatory period), subjects remained in bed continuously for 10 days. […] Subjects were constantly monitored by nursing staff and received a daily physical examination by the study physician. […]

[3] = system: Matrix Metalloproteinase-1 (MMP-1); assay: 10-day bed rest study in healthy elderly subjects: circulating MMP-1 (RBM Human DiscoveryMAP, serum)
Source text: as §1, §2, §3, §5

[4] = system: Matrix Metalloproteinase-10 (MMP-10); assay: 10-day bed rest study in healthy elderly subjects: circulating MMP-10 (RBM Human DiscoveryMAP, serum)
Source text: as §1, §2, §3, §4

[5] = after 10 days of bed rest, 10 HMB treated subjects
[6] = serum, Day 1 of bed rest, after 5 days of Ca-HMB 1.5 g sachet twice daily, n = 10
[7] = serum, end of 10 days bed rest, Ca-HMB 1.5 g sachet twice daily, n = 10
[8] = post- minus pre-bed rest, 10 days, n = 10, ANCOVA vs control p < 0.0001

SMILES: CC(C)(O)CC(=O)O [HMB, β-hydroxy-β-methylbutyric acid]
- average decrease in blood levels of MMP-3 [1, 5]: 2.71 ng/mL
- change (decrease) in blood levels of MMP-3 [1, 5]: 25%
- MMP-3 Change ([1]; post- minus pre-bed rest, 10 days, n = 10, ANCOVA vs control p = 0.0007): -2.71 ± 0.78 ng/mL
- effect on the decrease in blood levels of MMP-3 that occurs in untreated control subjects ([1]; prolonged bed rest, vs control): reduces or attenuates the decrease
- MMP-3 Pre-bed rest Mean [1, 6]: 10.90 ng/mL
- MMP-3 Post-bed rest Mean [1, 7]: 8.19 ng/mL
- effect against development of fibrosis, all 3 markers taken together [2]: protective effect
- average increase in circulating levels of MMP-1 [3, 5]: 2.17 ng/mL
- MMP-1 Change [3, 8]: 2.17 ± 1.06 ng/mL
- effect on the increase in blood levels of MMP-1 that occurs in untreated control subjects ([3]; prolonged bed rest, vs control): enhances the increase
- MMP-1 Pre-bed rest Mean [3, 6]: 11.29 ng/mL
- MMP-1 Post-bed rest Mean [3, 7]: 13.46 ng/mL
- average decrease in blood levels of MMP-10 [4, 5]: 0.09 ng/mL
- decrease in blood levels of MMP-10 [4, 5]: 12%
- MMP-10 Change [4, 8]: -0.09 ± 0.04 ng/mL
- effect on the decrease in blood levels of MMP-10 that occurs in untreated control subjects ([4]; prolonged bed rest, vs control): reduces or attenuates the decrease
- MMP-10 Pre-bed rest Mean [4, 6]: 0.60 ng/mL
- MMP-10 Post-bed rest Mean [4, 7]: 0.51 ng/mL
